Measured values from paper PMC4178172, “Molecular Determinants of Agonist Selectivity in Glutamate-Gated Chloride Channels Which Likely Explain the Agonist Selectivity of the Vertebrate Glycine and GABAA-ρ Receptors” (PLoS ONE, 2014).

Key:
GluClAc2 = molecular target: T1, GluClAc2 (Aplysia californica, UniProt C7DLK0, Y161A); experiment: whole-cell patch clamp, […] glutamate; assay type: cell-based
T1 construct: homomeric receptor expressed in CHO-K1 cells
T1 sequence (C7DLK0 32-429 Y161A): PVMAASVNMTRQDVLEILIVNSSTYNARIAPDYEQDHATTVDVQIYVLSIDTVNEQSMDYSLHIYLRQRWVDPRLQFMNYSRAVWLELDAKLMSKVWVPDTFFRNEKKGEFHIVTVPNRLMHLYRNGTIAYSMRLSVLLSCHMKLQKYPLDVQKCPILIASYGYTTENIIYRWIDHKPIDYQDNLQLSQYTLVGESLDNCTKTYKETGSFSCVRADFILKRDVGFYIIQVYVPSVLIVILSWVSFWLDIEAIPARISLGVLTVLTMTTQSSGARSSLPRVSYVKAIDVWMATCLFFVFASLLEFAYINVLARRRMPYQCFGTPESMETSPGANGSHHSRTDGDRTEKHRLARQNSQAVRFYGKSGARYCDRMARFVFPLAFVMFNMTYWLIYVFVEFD

GluClα2b = molecular target: T2, GluClα2b (Caenorhabditis elegans, UniProt O17548, R111L); experiment: whole-cell patch clamp, […] glutamate; assay type: cell-based
T2 construct: gene avr-15; homomeric receptor expressed in CHO-K1 cells
T2 sequence (O17548 21-478 R111L): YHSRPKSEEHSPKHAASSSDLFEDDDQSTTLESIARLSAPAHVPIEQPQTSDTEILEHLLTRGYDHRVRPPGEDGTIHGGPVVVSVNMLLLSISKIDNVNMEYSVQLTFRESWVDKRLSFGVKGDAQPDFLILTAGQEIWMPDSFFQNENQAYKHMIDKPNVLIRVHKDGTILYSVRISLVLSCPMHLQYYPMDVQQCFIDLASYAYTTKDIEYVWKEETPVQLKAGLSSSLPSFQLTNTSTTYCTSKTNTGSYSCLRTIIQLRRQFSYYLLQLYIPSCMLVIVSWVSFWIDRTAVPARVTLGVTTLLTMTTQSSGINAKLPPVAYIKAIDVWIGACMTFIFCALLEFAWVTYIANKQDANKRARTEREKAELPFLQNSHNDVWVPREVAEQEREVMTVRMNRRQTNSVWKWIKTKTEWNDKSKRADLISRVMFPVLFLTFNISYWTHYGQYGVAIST

SMILES: N[C@@H](CCC(=O)O)C(=O)O [glutamate]
- whole-cell patch clamp, 1 mM glutamate (GluClAc2): its mutation to an alanine failed to cause any noticeable change in the response to glutamate
- whole-cell patch clamp, 1-100 mM glutamate (GluClα2b): this mutation did not impede a robust response to glutamate at higher concentrations
